Assay results published in patent publication US5064954A, “Process for producing halomethylcarbapenems” (Shionogi & Co., Ltd., priority 1990, dated 1991).
Values after ≈ are worked out from the molar mass of the structure shown.

Legend:
Assay type in all cases: cell-based
Ps. aeruginosa SR-24 = test: MIC against Ps. aeruginosa SR-24; conditions: Pseudomonas aeruginosa, SR24
From the text: |MIC: μg/ml (inoculum size = 10^5 /ml) |P = Ps. aeruginosa SR-24

S. aureus Smith = test: MIC against S. aureus Smith; conditions: Staphylococcus aureus
From the text: |MIC: μg/ml (inoculum size = 10^5 /ml) |S = S. aureus Smith

E. coli EC-14 = test: MIC against E. coli EC-14; conditions: Escherichia coli, EC14
From the text: |MIC: μg/ml (inoculum size = 10^5 /ml) |E = E. coli EC-14

[1] = Table I, P = Ps. aeruginosa SR-24, inoculum size = 10^5 /ml
[2] = Table I, S = S. aureus Smith, inoculum size = 10^5 /ml
[3] = Table I, E = E. coli EC-14, inoculum size = 10^5 /ml
[4] = Table II, P (key, unit and inoculum given only in Table I)
[5] = Table II, S (key, unit and inoculum given only in Table I)
[6] = Table II, E (key, unit and inoculum given only in Table I)
[7] = Table III, P (key, unit and inoculum given only in Table I)
[8] = Table III, S (key, unit and inoculum given only in Table I)
[9] = Table III, E (key, unit and inoculum given only in Table I)

SMILES | MIC (Ps. aeruginosa SR-24; [1]) [µg/mL] | MIC (S. aureus Smith; [2]) [µg/mL] | MIC (E. coli EC-14; [3]) [µg/mL] | further results
CC(O)[C@H]1C(=O)N2C(C(=O)[O-])=C(C[n+]3cccc4c3CCC4)[C@H](C)[C@H]12 (stereo partly drawn) [Table I No. 8] | 6.25 (≈ 18.3 µM) | 0.025 (≈ 0.073 µM) | 0.2 (≈ 0.584 µM) | –
COc1ccc[n+](CC2=C(C(=O)[O-])N3C(=O)[C@H](C(C)O)[C@H]3[C@H]2C)c1 (stereo partly drawn) [Table I No. 24] | 3.13 (≈ 9.42 µM) | 0.025 (≈ 0.0752 µM) | 0.39 (≈ 1.17 µM) | –
CC(O)[C@H]1C(=O)N2C(C(=O)[O-])=C(C[N+]34CCN(CC3)CC4)[C@H](C)[C@H]12 (stereo partly drawn) [Table II No. 6] | – | – | – | MIC (Ps. aeruginosa SR-24; [4]): 6.25 µg/mL (≈ 18.6 µM); MIC (S. aureus Smith; [5]): 0.1 µg/mL (≈ 0.298 µM); MIC (E. coli EC-14; [6]): 0.39 µg/mL (≈ 1.16 µM)
CC(O)[C@H]1C(=O)N2C(C(=O)[O-])=C(C[n+]3cccc(-c4cnco4)c3)[C@H](C)[C@H]12 (stereo partly drawn) [Table I No. 16] | 1.56 (≈ 4.22 µM) | 0.025 (≈ 0.0677 µM) | 0.2 (≈ 0.541 µM) | –
CC(O)[C@H]1C(=O)N2C(C(=O)[O-])=C(CN[n+]3ccccc3)[C@H](C)[C@H]12 (stereo partly drawn) [Table III No. 1] | – | – | – | MIC (Ps. aeruginosa SR-24; [7]): 12.5 µg/mL (≈ 39.4 µM); MIC (S. aureus Smith; [8]): 0.025 µg/mL (≈ 0.0788 µM); MIC (E. coli EC-14; [9]): 0.39 µg/mL (≈ 1.23 µM)
CC(O)[C@H]1C(=O)N2C(C(=O)[O-])=C(C[n+]3ccc(-c4cnco4)cc3)[C@H](C)[C@H]12 (stereo partly drawn) [Table I No. 18] | 6.25 (≈ 16.9 µM) | 0.025 (≈ 0.0677 µM) | 0.39 (≈ 1.06 µM) | –
CC(O)[C@H]1C(=O)N2C(C(=O)O)=C(CN3CCCC3)[C@H](C)[C@H]12 (stereo partly drawn) [Table III No. 2] | – | – | – | MIC (Ps. aeruginosa SR-24; [7]): 12.5 µg/mL (≈ 42.5 µM); MIC (S. aureus Smith; [8]): 0.0125 µg/mL (≈ 0.0425 µM); MIC (E. coli EC-14; [9]): 0.39 µg/mL (≈ 1.32 µM)
CC(O)[C@H]1C(=O)N2C(C(=O)[O-])=C(C[n+]3cccc(C(N)=O)c3)[C@H](C)[C@H]12 (stereo partly drawn) [Table I No. 14] | 1.56 (≈ 4.52 µM) | 0.025 (≈ 0.0724 µM) | 0.39 (≈ 1.13 µM) | –
CC(O)[C@H]1C(=O)N2C(C(=O)[O-])=C(C[N+]3(CC(N)=O)CCCC3)[C@H](C)[C@H]12 (stereo partly drawn) [Table II No. 2] | – | – | – | MIC (Ps. aeruginosa SR-24; [4]): 12.5 µg/mL (≈ 35.6 µM); MIC (S. aureus Smith; [5]): 0.1 µg/mL (≈ 0.285 µM); MIC (E. coli EC-14; [6]): 0.2 µg/mL (≈ 0.569 µM)
CC(O)[C@H]1C(=O)N2C(C(=O)[O-])=C(C[N+]3(C)CCCCC3)[C@H](C)[C@H]12 (stereo partly drawn) [Table II No. 4, 1β-methyl-2-(1-methylpiperidinio-1-yl)methyl-6α-(1-hydroxyethyl)-1-carba-2-penem-4-carboxylate] | – | – | – | MIC (Ps. aeruginosa SR-24; [4]): 3.13 µg/mL (≈ 9.71 µM); MIC (S. aureus Smith; [5]): 0.025 µg/mL (≈ 0.0775 µM); MIC (E. coli EC-14; [6]): 0.1 µg/mL (≈ 0.31 µM)
CC(O)[C@H]1C(=O)N2C(C(=O)[O-])=C(C[n+]3ccc(CN)cc3)[C@H](C)[C@H]12 (stereo partly drawn) [Table I No. 10] | 3.13 (≈ 9.45 µM) | 0.05 (≈ 0.151 µM) | 0.78 (≈ 2.35 µM) | –
CC(O)[C@H]1C(=O)N2C(C(=O)[O-])=C(C[n+]3ccc(-c4ncco4)cc3)[C@H](C)[C@H]12 (stereo partly drawn) [Table I No. 17] | 3.13 (≈ 8.47 µM) | 0.025 (≈ 0.0677 µM) | 0.2 (≈ 0.541 µM) | –
CC(O)[C@H]1C(=O)N2C(C(=O)[O-])=C(C[n+]3ccc(N(C)C)cc3)[C@H](C)[C@H]12 (stereo partly drawn) [Table I No. 22] | 3.13 (≈ 9.06 µM) | 0.0125 (≈ 0.0362 µM) | 0.1 (≈ 0.29 µM) | –
CSc1ccc[n+](CC2=C(C(=O)[O-])N3C(=O)[C@H](C(C)O)[C@H]3[C@H]2C)c1 (stereo partly drawn) [Table I No. 26] | 3.13 (≈ 8.98 µM) | 0.0125 (≈ 0.0359 µM) | 0.39 (≈ 1.12 µM) | –

Continued, in another order:

MIC (Ps. aeruginosa SR-24; [1]) [µg/mL] | MIC (S. aureus Smith; [2]) [µg/mL] | MIC (E. coli EC-14; [3]) [µg/mL] | SMILES | further results
1.56 (≈ 5.16 µM) | 0.0125 (≈ 0.0413 µM) | 0.1 (≈ 0.331 µM) | CC(O)[C@H]1C(=O)N2C(C(=O)[O-])=C(C[n+]3ccccc3)[C@H](C)[C@H]12 (stereo partly drawn) [Table I No. 3, 1β-methyl-2-pyridiniomethyl-6α-(1-hydroxyethyl)-1-carba-2-penem-4-carboxylate] | –
1.56 (≈ 4.93 µM) | 0.025 (≈ 0.079 µM) | 0.2 (≈ 0.632 µM) | Cc1ccc[n+](CC2=C(C(=O)[O-])N3C(=O)[C@H](C(C)O)[C@H]3[C@H]2C)c1 (stereo partly drawn) [Table I No. 5] | –
3.13 (≈ 10.2 µM) | 0.025 (≈ 0.0811 µM) | 0.1 (≈ 0.324 µM) | CC(O)[C@H]1C(=O)N2C(C(=O)[O-])=C(C[n+]3ccsc3)[C@H](C)[C@H]12 (stereo partly drawn) [Table I No. 1] | –
3.13 (≈ 9.77 µM) | 0.025 (≈ 0.078 µM) | 0.39 (≈ 1.22 µM) | CC(O)[C@H]1C(=O)N2C(C(=O)[O-])=C(C[n+]3cccc(F)c3)[C@H](C)[C@H]12 (stereo partly drawn) [Table I No. 28] | –
12.5 (≈ 39.3 µM) | 0.05 (≈ 0.157 µM) | 0.2 (≈ 0.628 µM) | CC(O)[C@H]1C(=O)N2C(C(=O)[O-])=C(C[n+]3cccc(O)c3)[C@H](C)[C@H]12 (stereo partly drawn) [Table I No. 23] | –
